This note sets out measurements from ChEMBL document CHEMBL1158239, “Costaricine, a new antiplasmodial bisbenzylisoquinoline alkaloid from Nectandra salicifolia trunk bark” (J Nat Prod, 1996).

Converted amounts (≈) assume the structure as drawn.

For assay [1], the system named is Plasmodium falciparum. The assay is described as follows: Antimalarial activity against chloroquine-sensitive Plasmodium falciparum D6 as [3H]hypoxanthine uptake. It is filed as functional, organism-based.
Assay [2] deals with Plasmodium falciparum. Nature of the assay: Antimalarial activity against chloroquine-resistant Plasmodium falciparum W2 as [3H]hypoxanthine uptake. Type of assay: functional, organism-based.

For the compound `COc1cc2c(cc1O)C[C@@H]1NCCc3cc(OC)c(OC)c-2c31` [LAUROTETANINE], the IC50 (in general, the concentration at which inhibition is half-maximal) in assay [1] amounted to 3.9 mg/L (≈ 11.9 µM); in assay [2], 2.53 mg/L (≈ 7.73 µM).

Consider `COc1ccc2c(c1O)-c1c(OC)c(OC)cc3c1[C@H](C2)NCC3`, for which the results for the 50% inhibitory concentration (IC50) in assay [1] and in assay [2] were 1.99 mg/L (≈ 6.08 µM) and 1.9 mg/L (≈ 5.8 µM), respectively.

For the compound `COc1ccc2c(c1O)[C@H](Cc1ccc(O)cc1)NCC2`, the 50% inhibitory concentration (IC50) was 4.1 mg/L (≈ 14.4 µM) in assay [1] and 3.1 mg/L (≈ 10.9 µM) in assay [2].

Consider `COc1cc2c(cc1O)C[C@H]1c3c(cc(O)c(OC)c3-2)CCN1C` [BOLDINE], for which the IC50 amounted to 2.13 mg/L (≈ 6.51 µM) in assay [1] and 1.47 mg/L (≈ 4.49 µM) in assay [2].

For `COc1cc2c(cc1O)C[C@H]1c3c(cc(OC)c(O)c3-2)CCN1C` [ISOBOLDINE], the concentration for half-maximal inhibition (IC50) in assay [1] worked out at 0.668 mg/L (≈ 2.04 µM); in assay [2], 0.904 mg/L (≈ 2.76 µM).

For the compound `C[C@@H]1CC[C@H]2[C@@H](C)C(=O)O[C@@H]3O[C@@]4(C)CC[C@@H]1[C@]32OO4` [ARTEMISININ], the IC50 in assay [1] came to 0.0041 mg/L (≈ 0.0145 µM); in assay [2], 0.0022 mg/L (≈ 0.00779 µM).

As for `COc1ccc2c(c1O)[C@H](Cc1ccc(O)cc1)N(C)CC2`, the IC50 in assay [1] was found to be 4.09 mg/L (≈ 13.7 µM); in assay [2], 4.48 mg/L (≈ 15 µM).

For the compound `COc1ccc2c(c1O)-c1c(OC)c(OC)cc3c1[C@H](C2)N(C)CC3` [ISOCORYDINE], the IC50 in assay [1] amounted to 1.9 mg/L (≈ 5.57 µM); in assay [2], 2.83 mg/L (≈ 8.29 µM).

On to `COc1cc2c(cc1OC)[C@]13CCN(C)[C@@H](C2)[C@@H]1CC(=O)C(OC)C3` (some centres not stated), for which the IC50 in assay [1] turned out to be 7.1 mg/L (≈ 20.6 µM); in assay [2] it was 9.02 mg/L (≈ 26.1 µM).

Turning to `COc1cc2c(cc1O)C[C@H]1c3c(cc(OC)c(OC)c3-2)CCN1C`, the IC50 in assay [1] stood at 7.15 mg/L (≈ 20.9 µM); in assay [2], 2.7 mg/L (≈ 7.91 µM).

`COc1cc2c(cc1O)[C@@H](Cc1ccc(Oc3cc(C[C@H]4NCCc5cc(OC)c(O)cc54)ccc3OC)cc1)NCC2` [COSTARICINE]: the concentration for half-maximal inhibition (IC50) worked out at 0.05 mg/L (≈ 0.0858 µM) in assay [1] and 0.294 mg/L (≈ 0.505 µM) in assay [2].

With `COc1cc2c(cc1OC)-c1c(OC)c(OC)c(OC)c3c1[C@H](C2)NCC3`, the figures for the IC50 in assay [1] and in assay [2] were 1.51 mg/L (≈ 4.07 µM) and 1.75 mg/L (≈ 4.71 µM), respectively.

Take `COc1cc2c(cc1O)[C@H](Cc1ccc(O)cc1)N(C)CC2`: the half-inhibitory concentration (IC50) in assay [1] came out at 2.73 mg/L (≈ 9.12 µM); in assay [2] it was 3.81 mg/L (≈ 12.7 µM).

With `C=C[C@H]1CN2CC[C@H]1C[C@H]2[C@H](O)c1ccnc2ccc(OC)cc12` [QUININE], the values for the half-maximal inhibitory concentration (IC50) in assay [1] and in assay [2] were 0.0157 mg/L (≈ 0.0484 µM) and 0.0388 mg/L (≈ 0.12 µM), respectively.

On to `COc1ccc(C[C@H]2c3cc(O)c(OC)cc3CCN2C)cc1O` [(S)-RETICULINE], for which the IC50 in assay [1] amounted to 5.8 mg/L (≈ 17.6 µM); in assay [2], 3.65 mg/L (≈ 11.1 µM).

Consider `COc1cc2c(cc1O)C[C@@H]1NCCc3cc(O)c(OC)c-2c31` [NORBOLDINE], for which the half-maximal inhibitory concentration (IC50) was 1.24 mg/L (≈ 3.96 µM) in assay [1] and 1.68 mg/L (≈ 5.36 µM) in assay [2].
